From US7737140B2, “Therapeutic compounds” (Allergan, Inc., priority 2008, dated 2010)

System: lashes and adjacent hairs of the eyelids
Test: Clinical observation of lashes and adjacent hairs in glaucoma patients treated with bimatoprost in one eye
Type: in vivo
Source text: In the course of treating patients having glaucoma, treatment may only be appropriate in one eye. […] The lash appearance on the lids of the treated eyes would have appeared quite attractive if it represented a bilateral phenomenon. As a result of its asymmetric nature, the long lashes on one side could be construed as disturbing from a cosmetic standpoint. A systemic examination was preformed as a result of the asymmetric phenomenon. It soon became apparent that this altered appearance was not an isolated finding. […] Definite differences could be identified to varying degrees in the lashes and adjacent hairs of all patients who were taking the drug on a unilateral basis for longer than 6 months.
The changes in the lashes were apparent on gross inspection in several patients once attention was focused on the issue. In those with light colored hair and lashes, the differences were only seen easily with the aid of the high magnification and lighting capabilities of the slit lamp biomicroscope. In the course of glaucoma follow-up examination, attention is generally immediately focused on the eye itself. As a result of the high power magnification needed only one eye is seen at a time and the eye is seen at a high enough power that the lashes are not in focus. […]

CCNC(=O)CCC/C=C\C[C@@H]1[C@@H](/C=C/[C@@H](O)CCc2ccccc2)[C@H](O)C[C@@H]1O [bimatoprost]
hair growth in treated versus control areas (conclusion from multiple parameters of hair appearance in many subjects): stimulated
lashes in the treated eye compared with the non-treated eye (glaucoma patient treated with bimatoprost in only one eye): longer, thicker, and fuller
